We go through eleven molecules from patent US8835147B2, “Cellular production of glucaric acid through recombinant expression of uronate dehydrogenase and myo-inositol oxygenase” (Massachusetts Institute of Technology, priority 2008, dated 2014).

One data set concerns the target T1, MIOX from hog kidney (Sus scrofa, UniProt Q8WN98).
T1 sequence (Q8WN98 1-282): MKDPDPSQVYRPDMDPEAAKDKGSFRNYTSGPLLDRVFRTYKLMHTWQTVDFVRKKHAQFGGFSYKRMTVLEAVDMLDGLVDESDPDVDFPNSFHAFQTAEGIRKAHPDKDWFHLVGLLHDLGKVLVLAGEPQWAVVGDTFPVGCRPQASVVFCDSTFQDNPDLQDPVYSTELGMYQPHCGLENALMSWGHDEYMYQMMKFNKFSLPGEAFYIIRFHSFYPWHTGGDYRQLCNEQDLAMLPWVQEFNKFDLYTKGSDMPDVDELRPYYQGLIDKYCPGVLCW
To be noted: cited from earlier work; for inhibition of MIOX activity: at high concentrations, reported previously (30, 31); for inhibition of MIOX from hog kidney in vitro: reported (30, 31).

The target of data set [1] is T2, uronate dehydrogenase from P. syringae (Pseudomonas syringae pv. tomato, UniProt Q888H1).
T2 construct: 6xHis (C); made in house; host or cells: E. coli BL21 (DE3)
T2 sequence (Q888H1 whole entry): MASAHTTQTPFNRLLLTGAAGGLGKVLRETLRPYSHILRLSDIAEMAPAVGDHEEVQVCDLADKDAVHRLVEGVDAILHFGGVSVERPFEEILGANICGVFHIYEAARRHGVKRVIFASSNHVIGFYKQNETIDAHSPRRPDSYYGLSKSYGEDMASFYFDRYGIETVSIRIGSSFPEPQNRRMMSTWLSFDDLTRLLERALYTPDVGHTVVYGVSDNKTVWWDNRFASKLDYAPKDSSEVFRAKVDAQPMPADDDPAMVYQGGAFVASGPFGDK
Put plainly: Kinetic analysis of purified Udh (initial NADH generation at 340 nm). To be noted: purified 6×His Udh, 0 to 10 mM substrate, 1.2 mM NAD^+. The class given is biochemical, Pseudomonas syringae pv. tomato str. DC3000. On the procedure:
(§1) The udh genes from genomic DNA of A. tumefaciens, P. putida, and P. syringae were amplified using primers ATuEQ-F/R, PPuEQ-F/R, and PSuEQ-F/R as listed in Table 4. The PCR products were digested with SacI and HindIII and inserted into the same sites of pET21b containing a 6×His-Tag to construct pETATu, pETPPu, and pETPSu, respectively (Table 4). These plasmids were used to transform E. coli BL21 (DE3) to use for protein expression. The recombinant E. coli BL21 strains were cultivated at 30° C., 250 rpm for 6 hours after IPTG induction. Protein purification was carried out using the ProBond™ Purification System as described by the manufacturer (Invitrogen Corp, Carlsbad, Calif., USA). SDS-PAGE (sodium dodecyl sulfate-polyacrylamide gel electrophoresis) was performed as described in Sambrook et. al. (35). Enzyme activities on substrates of purified proteins were measured by monitoring initial NADH generation at 340 nm and room temperature. Kinetic analysis on glucuronate and galacturonate was carried out using 0 to 10 mM glucuronate or galacturonate and 1.2 mM NAD^+ in 100 mM Tris-HCl, pH 8.0. Kinetic analysis on NAD^+ was performed using 0 to 2 mM NAD^+ and 10 mM glucuronate in 100 mM Tris-HCl, pH 8.0. A series of enzymatic assays were conducted to estimate the initial activity as a function of starting substrate concentration. […] Nonlinear least-squares regression analyses were performed via the Gauss-Newton method as implemented using the intrinsic Matlab® function nlinfit.

Data set [2] addresses T3, uronate dehydrogenase from P. putida (Pseudomonas putida, UniProt Q88NN6).
T3 construct: 6xHis (C); made in house; host or cells: E. coli BL21 (DE3)
The data set is described as above. Type of data set: biochemical, Pseudomonas putida KT2440. To be noted: purified 6×His Udh, 0 to 10 mM substrate, 1.2 mM NAD^+. On the procedure:
as §1

The target in data set [3] is T4, uronate dehydrogenase from A. tumefaciens (Agrobacterium fabrum, UniProt Q7CRQ0).
T4 construct: 6xHis (C); made in house; host or cells: E. coli BL21 (DE3)
The description is as above. Type of data set: biochemical, Agrobacterium tumefaciens str. C58. To be noted: for kcat / Km: purified 6×His Udh, 0 to 10 mM substrate, 1.2 mM NAD^+. On the procedure:
as §1

For a further data set, the system named is E. coli. In words: E. coli growth and glucose consumption with added organic acid salts. The class given is cell-based, Escherichia coli. To be noted: added at concentrations as high as 10 g/L; data not shown.
Data set [4] addresses T5, uronate dehydrogenase (Udh) of P. syringae (Pseudomonas syringae pv. tomato, UniProt Q888H1).
T5 construct: made in house; host or cells: E. coli (DH10B or BL21(DE3)); crude lysate, not purified
Put plainly: Udh activity in crude E. coli lysates (NADH generation at 340 nm). The class given is biochemical. To be noted: crude E. coli lysates containing the P. syringae udh gene; data not shown. On the procedure:
Assays for uronate dehydrogenase activity were performed by monitoring NADH co-factor generation at 340 nm as described previously (35, 40). The reaction mixture contained 100 mM sodium phosphate buffer (pH 8.0), 2.5 mM glucuronic acid, 0.9 mM NAD^+, and bacterial lysate prepared as described above.
Bacterial lysates for enzymatic analysis were prepared by the freeze-thaw method. E. coli strains harboring udh genes were grown overnight in LB medium containing 0.1 mM IPTG (Isopropyl β-D-1-thiogalactopyranoside). Pellets were re-suspended in 1 mg/mL lysozyme solution and incubated on ice for 30 min. The suspensions were frozen in liquid nitrogen then thawed in a 37° C. water bath. This step was repeated five times. Cell lysates were centrifuged at 14,000 rpm at 4° C. for 15 min, and the supernatant was used for enzymatic analysis. Udh activities on glucuronate were measured by monitoring NADH (nicotinamide adenine dinucleotide, reduced) generation at 340 nm (38). The reaction mixture was consisted of 2.5 mM glucuronate, 0.9 mM NAD^+ (nicotinamide adenine dinucleotide), and 100 mM sodium phosphate buffer. The reaction was initiated by the addition of lysate to the reaction mixture at room temperature, and monitored. […] The total protein concentration was determined using the Bradford method (Bradford (1976) Anal Biochem 72:248-54). […]

The nature of data set [5]: Thermal stability of purified Udhs (30 minutes at temperature, then standard assay). The class given is physicochemical. To be noted: purified Udh, FIG. 10b. On the procedure: The impact of temperature was evaluated in two ways. First, the thermal stability was examined by exposing enzyme preparations to various temperatures for 30 minutes, then performing the enzyme assay under standard conditions. […] The activity remained near 80% of maximum after exposure of the A. tumefaciens preparation to 37° C., while the corresponding activities for both of the other enzymes was below 20% of maximum. The stability profiles for both Pseudomonas enzymes were similar to one another. Finally, enzyme activity was evaluated for assays conducted under increasing temperatures. These activities followed a general trend of increasing activity with increasing temperature between 4 and 42° C., which is consistent with an Arrhenius-type dependence of the catalytic rate constant on temperature (FIG. 10c).

The mark [6] stands for this setting: 100 mM Tris-HCl pH 8.0, room temperature.

Values joined by “and” are separate entries in the source; they are usually repeats but may differ in a detail not shown here. Equal entries are not always repeated. Where two headings read alike, the source gives them in different places.

T3 sequence (Q88NN6 whole entry): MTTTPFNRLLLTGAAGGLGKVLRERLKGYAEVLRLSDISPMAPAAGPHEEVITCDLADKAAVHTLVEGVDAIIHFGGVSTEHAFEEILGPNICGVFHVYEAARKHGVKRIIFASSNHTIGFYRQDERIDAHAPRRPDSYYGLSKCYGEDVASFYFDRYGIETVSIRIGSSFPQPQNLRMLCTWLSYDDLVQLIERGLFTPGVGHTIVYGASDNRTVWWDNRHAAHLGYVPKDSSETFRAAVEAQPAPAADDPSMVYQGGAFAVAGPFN
T5 sequence (Q888H1 whole entry): as the sequence (Q888H1 whole entry) above

Regarding `[Fe+2]` [Fe^2+], the “inhibition of MIOX activity” value on MIOX from hog kidney is recorded as “inhibited”.

For the molecule `O=C(O)[C@H]1O[C@H](O)[C@H](O)[C@@H](O)[C@H]1O` [Galacturonate, galacturonate], the turnover number (kcat) in data set [1] (setting [6]) was 24 ± 1 s⁻¹ and 24.02 ± 0.73 s⁻¹; in data set [1] (pH 8.0) it was 0.2 ± 0.01 10^2 · 1/s; in data set [2] (setting [6]) it was 30 ± 3 s⁻¹ and 30.08 ± 3.12 s⁻¹; in data set [2] (pH 8.0), 0.3 ± 0.03 10^2 · 1/s; in data set [3] (setting [6]), 92 ± 14 s⁻¹ and 91.85 ± 14.26 s⁻¹; in data set [3] (pH 8.0) it was 0.9 ± 0.14 10^2 · 1/s. Also, the Michaelis constant (Km) worked out at 40 µM in data set [1] (pH 8.0), 100 ± 60 µM in data set [2] (pH 8.0) and 160 ± 120 µM in data set [3] (pH 8.0).

Consider `O=C([O-])[C@@H](O)[C@@H](O)[C@H](O)[C@@H](O)C(=O)[O-].[K+].[K+]` [potassium glucarate], for which the “E. coli growth and glucose consumption” value with E. coli was “not observed to be affected”.

In the case of `O=C[C@H](O)[C@@H](O)[C@H](O)[C@H](O)C(=O)[O-].[Na+]` [sodium glucuronate], the “E. coli growth and glucose consumption” value in the data set on E. coli is given as “not observed to be affected”.

For `N[C@@H](CS)C(=O)O` [cysteine], at MIOX from hog kidney, the “inhibition of MIOX activity” value is on record as “inhibited”.

With `NC(=O)c1ccc[n+]([C@@H]2O[C@H](COP(=O)([O-])OP(=O)(O)OC[C@H]3O[C@@H](n4cnc5c(N)ncnc54)[C@H](O)[C@@H]3O)[C@@H](O)[C@H]2O)c1` [NAD^+, nicotinamide adenine dinucleotide], in data set [4], the “utilization as a co-factor” value is “utilized”.

On to `O=C(O)[C@H]1O[C@@H](O)[C@H](O)[C@@H](O)[C@@H]1O` [Glucuronate, glucuronate], for which the catalytic constant (kcat) in data set [1] (setting [6]) is 74 ± 3 s⁻¹ and 73.77 ± 3.13 s⁻¹; in data set [1] (pH 8.0), 0.7 ± 0.03 10^2 · 1/s; in data set [2] (setting [6]), 55 ± 3 s⁻¹ and 54.57 ± 2.60 s⁻¹; in data set [2] (pH 8.0) it was 0.5 ± 0.03 10^2 · 1/s; in data set [3] (setting [6]), 194 ± 12 s⁻¹ and 193.90 ± 11.84 s⁻¹; in data set [3] (pH 8.0), 1.9 ± 0.12 10^2 · 1/s. Besides, the figures for the Km in data set [1] (pH 8.0), in data set [2] (pH 8.0) and in data set [3] (pH 8.0) were 280 ± 70 µM, 250 ± 70 µM and 370 ± 120 µM, respectively. Besides, the “inhibition of MIOX from hog kidney in vitro” value (“inhibition of MIOX … in vitro” below) at MIOX from hog kidney is “not”. Further, the “kcat (highest rate constant)” value is 190 s⁻¹ in data set [3] and 1.9×10^2 in data set [3] (unit not given). For the same molecule, the “kcat of A. tumefaciens enzyme relative to the Pseudomonas enzymes” value in data set [3] (glucuronate as substrate) is on record as “more than 2 fold”.

On to `O=C[C@H](O)[C@H]1OC(=O)[C@@H](O)[C@H]1O` [D-glucuronolactone], for which the “inhibition of MIOX … in vitro” value at MIOX from hog kidney is given as “not”.

As for `NC(=O)c1ccc[n+]([C@@H]2O[C@H](COP(=O)([O-])OP(=O)(O)OC[C@H]3O[C@@H](n4cnc5c(N)ncnc54)[C@H](OP(=O)(O)O)[C@@H]3O)[C@@H](O)[C@H]2O)c1` [NADP^+], the “utilization as a co-factor” value in data set [4] is recorded as “not”.

As to `O=C(O)[C@@H](O)[C@@H](O)[C@H](O)[C@@H](O)C(=O)O` [D-glucaric acid], the “inhibition of MIOX … in vitro” value at MIOX from hog kidney is given as “inhibited”.

B1: A. tumefaciens Udh: 6×-His tagged uronate dehydrogenase from A. tumefaciens str. C58 (SEQ ID NO:24), expressed in E. coli and purified (protein, listed as Agrobacterium tumefaciens)
chain: MKRLLVTGAAGQLGRVMRERLAPMAEILRLADLSPLDPAGPNEECVQCDLADANAVNAMVAGCDGIVHLGGISVEKPFEQILQGNIIGLYNLYEAARAHGQPRIVFASSNHTIGYYPQTERLGPDVPARPDGLYGVSKCFGENLARMYFDKFGQETALVRIGSCTPEPNNYRMLSTWFSHDDFVSLIEAVFRAPVLGCPVVWGASANDAGWWDNSHLGFLGWKPKDNAEAFRRHITETTPPPDPNDALVRFQGGTFVDNPIFKQS
modifications: 6xHis tag
As for B1, the “activity after exposure to 37° C. for 30 minutes” value in data set [5] is reported as ~80 % of maximum.

In general, kcat refers to the maximal rate divided by the concentration of active sites. The Km is the concentration of substrate that gives half-maximal velocity.
